According to patent publication US6465654B2, “Process for preparing 1-substituted, 2-substituted 1H-imidazo[4, 5-c]quinoline-4-amines” (3M Innovative Properties Company, priority 1991, dated 2002):

How the values were obtained:
interferon-α = assay: Interferon-α induction in human cells, PBM; format: cell-based; details: 24 hours
interferon = assay: Interferon induction in mice; format: in vivo; details: mouse serum
Procedure: One hour later blood samples are withdrawn from the first group. The samples are pooled then centrifuged. The serum is removed from the centrifuge tube, split into two portions, then placed in freezing vials and maintained at −70° C. until analysis. This procedure is repeated at 2 hours with the second group of mice and at 4 hours with the third group of mice. Samples are assayed as described above in connection with the analysis of interferon induction in human cells. The results are expressed in the table below as α/β reference units/mL based on the value obtained for a mouse MU-1-IF standard. Results are shown in the table below wherein results designated as “<” a certain number indicate that interferon was not detectable in amounts above the lower sensitivity level of the assay.

[1] = tested on: vesicular stomatitis virus (VSV); assay: microbe, parasite or virus in culture; format: cell-based; details: for log reduction at 0.1 µg/mL / log reduction at 0.5 µg/mL / log reduction at 1 µg/mL: Vesicular stomatitis virus, read-out: VSV Yield Inhibition; for VSV Yield Inhibition: log10 (control VSV yield/experimental VSV yield)

SMILES: CCOCc1nc2c(N)nc3ccccc3c2n1CCCOC [Example 44, 2-Ethoxymethyl-1-(3-methoxypropyl)-1H-imidazo[4,5-c]quinolin-4-amine]
- Interferon-α induction (interferon-α; dose concentration 0.10 μg/mL): 3000 α Reference Units/mL
- Interferon-α induction (interferon-α; dose concentration 0.50 μg/mL): 430 α Reference Units/mL
- Interferon-α induction (interferon-α; dose concentration 1.0 μg/mL): 430 α Reference Units/mL
- Interferon-α induction (interferon-α; dose concentration 5.0 μg/mL): 760 α Reference Units/mL
- Interferon induction in mice (interferon; oral 0.3 mg/kg, 1 hr): ˜570 Reference Units/mL
- Interferon induction in mice (interferon; oral 0.3 mg/kg, 2 hr): 510 Reference Units/mL
- Interferon induction in mice (interferon; oral 0.3 mg/kg, 4 hr): <260 Reference Units/mL
- Interferon induction in mice (interferon; oral 1 mg/kg, 1 hr): 990 Reference Units/mL
- Interferon induction in mice (interferon; oral 1 mg/kg, 2 hr): <260 Reference Units/mL
- Interferon induction in mice (interferon; oral 1 mg/kg, 4 hr): <260 Reference Units/mL
- Interferon induction in mice (interferon; oral 3 mg/kg, 1 hr): 1000 Reference Units/mL
- Interferon induction in mice (interferon; oral 3 mg/kg, 2 hr): 1500 Reference Units/mL
- Interferon induction in mice (interferon; oral 3 mg/kg, 4 hr): <260 Reference Units/mL
- Interferon induction in mice (interferon; oral 10 mg/kg, 1 hr): 1800 Reference Units/mL
- Interferon induction in mice (interferon; oral 10 mg/kg, 2 hr): 1600 Reference Units/mL
- Interferon induction in mice (interferon; oral 10 mg/kg, 4 hr): 790 Reference Units/mL
- log reduction at 0.1 µg/mL [1]: 3
- log reduction at 0.5 µg/mL [1]: 4
- log reduction at 1 µg/mL [1]: 7

SMILES: CCCCC(OC)c1nc2c(N)nc3ccccc3c2n1CC(C)C (stereo not drawn) [Example 61, 2-(1-Methoxypentyl)-1-(2-methylproyl) -1H-imidazo[4,5-c]quinolin-4-amine]
- Interferon-α induction (interferon-α; dose concentration 0.10 μg/mL): 64 α Reference Units/mL
- Interferon-α induction (interferon-α; dose concentration 0.50 μg/mL): 1300 α Reference Units/mL
- Interferon-α induction (interferon-α; dose concentration 1.0 μg/mL): 330 α Reference Units/mL
- Interferon-α induction (interferon-α; dose concentration 5.0 μg/mL): 330 α Reference Units/mL
- Interferon induction in mice (interferon; oral 0.3 mg/kg, 1 hr): <56 Reference Units/mL
- Interferon induction in mice (interferon; oral 0.3 mg/kg, 2 hr): <56 Reference Units/mL
- Interferon induction in mice (interferon; oral 0.3 mg/kg, 4 hr): <56 Reference Units/mL
- Interferon induction in mice (interferon; oral 1 mg/kg, 1 hr): 120 Reference Units/mL
- Interferon induction in mice (interferon; oral 1 mg/kg, 2 hr): 220 Reference Units/mL
- Interferon induction in mice (interferon; oral 1 mg/kg, 4 hr): 97 Reference Units/mL
- Interferon induction in mice (interferon; oral 3 mg/kg, 1 hr): 290 Reference Units/mL
- Interferon induction in mice (interferon; oral 3 mg/kg, 2 hr): 500 Reference Units/mL
- Interferon induction in mice (interferon; oral 3 mg/kg, 4 hr): 120 Reference Units/mL
- Interferon induction in mice (interferon; oral 10 mg/kg, 1 hr): 290 Reference Units/mL
- Interferon induction in mice (interferon; oral 10 mg/kg, 2 hr): 1100 Reference Units/mL
- Interferon induction in mice (interferon; oral 10 mg/kg, 4 hr): 160 Reference Units/mL
- VSV Yield Inhibition ([1]; dose concentration 0.1 μg/mL): 5 log10
- VSV Yield Inhibition ([1]; dose concentration 0.5 μg/mL): 7 log10
- VSV Yield Inhibition ([1]; dose concentration 1.0 μg/mL): 5 log10

SMILES: COC(C)c1nc2c(N)nc3ccccc3c2n1CC(C)C (stereo not drawn) [Example 66, 2-(1-Methoxyethyl)-1-(2-methylpropyl)-1H-imidazo[4,5-c]quinolin-4-amine]
- Interferon-α induction (interferon-α; dose concentration 0.10 μg/mL): <5 α Reference Units/mL
- Interferon-α induction (interferon-α; dose concentration 0.50 μg/mL): <5 α Reference Units/mL
- Interferon-α induction (interferon-α; dose concentration 1.0 μg/mL): 1000 α Reference Units/mL
- Interferon-α induction (interferon-α; dose concentration 5.0 μg/mL): 1000 α Reference Units/mL
- Interferon induction in mice (interferon; oral 0.3 mg/kg, 1 hr): <56 Reference Units/mL
- Interferon induction in mice (interferon; oral 0.3 mg/kg, 2 hr): <56 Reference Units/mL
- Interferon induction in mice (interferon; oral 0.3 mg/kg, 4 hr): <56 Reference Units/mL
- Interferon induction in mice (interferon; oral 1 mg/kg, 1 hr): <56 Reference Units/mL
- Interferon induction in mice (interferon; oral 1 mg/kg, 2 hr): <56 Reference Units/mL
- Interferon induction in mice (interferon; oral 1 mg/kg, 4 hr): <56 Reference Units/mL
- Interferon induction in mice (interferon; oral 3 mg/kg, 1 hr): <74 Reference Units/mL
- Interferon induction in mice (interferon; oral 3 mg/kg, 2 hr): <120 Reference Units/mL
- Interferon induction in mice (interferon; oral 3 mg/kg, 4 hr): <56 Reference Units/mL
- Interferon induction in mice (interferon; oral 10 mg/kg, 1 hr): 1100 Reference Units/mL
- Interferon induction in mice (interferon; oral 10 mg/kg, 2 hr): 2600 Reference Units/mL
- Interferon induction in mice (interferon; oral 10 mg/kg, 4 hr): 380 Reference Units/mL
- log reduction at 0.1 µg/mL [1]: 2
- log reduction at 0.5 µg/mL [1]: 2
- log reduction at 1 µg/mL [1]: 3
